Tested on: Wistar rats
Assay: Aerosil-induced inflammatory reaction, paw swelling
Assay type: in vivo, rat
Details: treated 15 hours after noxa, 21 hour value
Procedure: The inflammatory reaction was induced by intraplantary injection of 0.1 ml of a 2% Aerosil suspension into a hind paw of Wistar rats weighing 130-160 g. The inhibitors according to the invention used for the treatment of the inflammatory reaction were dissolved in 0.9% sodium chloride solution in a concentration of 10-20 mg/ml. The experimental animals were treated by intraperitoneal, subcutaneous or intravenous injection of 0.5-1.0 ml of the solution of the inhibitors 15 hours after the inflammatory noxa had been set. The swelling of the inflamed paw, which is a measure of the severity of the inflammatory reaction, was followed with respect to time using a Kemper antiphlogmeter. The 21 hour value after the induction of inflammation (=6 hours after injection of the inhibitors according to the invention) was determined to ascertain the dose/effect relationship.

How did the “Inhibition of the inflammatory reaction, swelling of inflamed paw” value turn out when “basic pancreatic trypsin inhibitor [BPTI]” was run?
The value was “does not inhibit the inflammatory reaction”.
